Molecules are shown by their SMILES.

In the test the target is T1, TMEM16A (Mus musculus, UniProt Q8BHY3).
T1 construct: gene Ano1
T1 sequence (Q8BHY3 1-960): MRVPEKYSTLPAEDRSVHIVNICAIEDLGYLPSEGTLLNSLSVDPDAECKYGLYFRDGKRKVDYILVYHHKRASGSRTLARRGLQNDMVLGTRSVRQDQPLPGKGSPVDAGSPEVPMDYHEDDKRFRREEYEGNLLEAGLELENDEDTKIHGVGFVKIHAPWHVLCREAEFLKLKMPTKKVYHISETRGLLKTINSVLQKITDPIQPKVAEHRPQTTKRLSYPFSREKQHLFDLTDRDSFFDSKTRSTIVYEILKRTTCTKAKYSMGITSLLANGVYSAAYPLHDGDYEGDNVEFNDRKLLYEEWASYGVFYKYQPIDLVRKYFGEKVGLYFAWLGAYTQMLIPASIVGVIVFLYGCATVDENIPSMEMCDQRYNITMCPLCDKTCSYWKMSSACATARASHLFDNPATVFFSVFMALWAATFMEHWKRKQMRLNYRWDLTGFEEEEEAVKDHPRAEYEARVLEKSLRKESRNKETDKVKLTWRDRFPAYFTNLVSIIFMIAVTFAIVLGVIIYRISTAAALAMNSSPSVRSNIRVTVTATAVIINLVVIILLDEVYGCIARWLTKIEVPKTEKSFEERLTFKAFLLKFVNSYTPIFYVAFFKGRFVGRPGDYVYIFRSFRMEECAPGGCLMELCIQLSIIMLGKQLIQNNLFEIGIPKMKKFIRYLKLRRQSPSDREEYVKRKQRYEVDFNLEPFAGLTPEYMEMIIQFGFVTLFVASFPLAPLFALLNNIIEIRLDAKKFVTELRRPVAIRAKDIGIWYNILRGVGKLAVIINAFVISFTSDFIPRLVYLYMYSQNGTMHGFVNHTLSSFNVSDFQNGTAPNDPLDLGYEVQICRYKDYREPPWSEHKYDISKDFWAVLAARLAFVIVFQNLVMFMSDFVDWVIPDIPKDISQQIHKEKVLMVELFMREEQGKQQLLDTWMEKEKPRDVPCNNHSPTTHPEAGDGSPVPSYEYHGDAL
In words: whole-cell patch clamp in LA795 cells; YFP quenching; site-directed mutagenesis. Type of test: cell-based.

Compound `COc1cc(C2Oc3cc([C@H]4Oc5cc(O)cc(O)c5C(=O)[C@@H]4O)ccc3OC2CO)ccc1O` (stereo partly shown) [silibinin] registered an IC50 of 30.9 ± 2.1 µM.

A word on the IC50: it is the midpoint of a concentration-inhibition curve. A higher IC50 goes with lower potency.

The record behind these values is paper PMC8079988, “Inhibition of TMEM16A by Natural Product Silibinin: Potential Lead Compounds for Treatment of Lung Adenocarcinoma” (Frontiers in Pharmacology, 2021).
